Measured values as given in patent publication US10683272B2 (THE JOHNS HOPKINS UNIVERSITY, priority 2014, dated 2020).
Read-outs that look alike come from different tables or passages of the source. Where a SMILES comes first, the peptide text is derived from it. [ ]: non-standard residue; d: D form. The star is where a group is joined. ξ: configuration not given here. X1 = O=C(O)CC[C@H](NC(=O)N[C@@H](CCCCNC(=O)CCCCCCC(=O)*)C(=O)O)C(=O)O; DOTA = O=C(O)CN1CCN(CC(=O)O)CCN(CC(=O)*)CCN(CC(=O)O)CC1; ξF = NC(Cc1ccccc1)C(=O)O

Key:
[1] = system: PC-3 PIP and PC-3 flu tumors
[2] = biological target: PSMA (Homo sapiens, UniProt Q04609); assay: PSMA inhibitory activities, fluorescence-based assay (Example 3); type: biochemical
Sequence of PSMA (Q04609 whole entry): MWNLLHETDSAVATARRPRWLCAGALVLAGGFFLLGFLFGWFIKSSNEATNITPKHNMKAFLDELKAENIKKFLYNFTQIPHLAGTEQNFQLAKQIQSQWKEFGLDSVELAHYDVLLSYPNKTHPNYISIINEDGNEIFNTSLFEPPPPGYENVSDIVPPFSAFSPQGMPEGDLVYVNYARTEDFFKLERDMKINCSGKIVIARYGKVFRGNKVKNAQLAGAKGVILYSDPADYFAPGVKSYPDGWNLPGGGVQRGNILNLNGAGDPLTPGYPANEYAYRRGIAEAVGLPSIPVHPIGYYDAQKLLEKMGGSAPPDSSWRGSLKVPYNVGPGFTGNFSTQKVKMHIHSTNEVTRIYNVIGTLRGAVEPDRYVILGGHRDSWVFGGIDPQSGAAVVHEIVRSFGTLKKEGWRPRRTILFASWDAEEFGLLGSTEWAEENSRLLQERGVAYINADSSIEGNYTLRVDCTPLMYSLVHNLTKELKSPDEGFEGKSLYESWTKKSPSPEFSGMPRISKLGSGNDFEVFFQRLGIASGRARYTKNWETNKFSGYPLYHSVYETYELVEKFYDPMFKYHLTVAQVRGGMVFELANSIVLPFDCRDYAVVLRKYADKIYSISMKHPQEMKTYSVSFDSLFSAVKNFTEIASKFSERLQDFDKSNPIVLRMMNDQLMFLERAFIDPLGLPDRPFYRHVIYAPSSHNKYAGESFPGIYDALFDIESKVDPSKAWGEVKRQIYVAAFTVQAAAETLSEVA
Method: PSMA inhibitory activities were determined using a fluorescence-based assay (Banerjee, Pullambhatla, Byun, et al., 2011). Enzyme inhibitory constants (Ki values) were generated using the Cheng-Prusoff conversion (Cheng and Prusoff, 1973). Sub-lines of the androgen independent PC-3 human prostate cancer xenograft were used (Banerjee, Pullambhatla, Byun, et al., 2011). Those sub-lines have been modified to express high (PC-3 PIP) or naturally produce low (PC-3 flu) levels of PSMA (Dr. Warren Heston, Cleveland Clinic, Cleveland, Ohio).

[3] = system: PSMA+ PIP and PSMA− flu cells; assay: cell uptake and internalization study of ^177Lu-SRVI71; type: cell-based
[4] = system: PSMA+ PIP and PSMA− flu mouse xenografts; details: for uptake in PSMA+ tumor: n=4, text b326
Method: In vivo evaluation was performed in standard PSMA+ PIP and PSMA− flu mouse xenografts and by performing SPECT imaging with a VECT or instrument with an extra ultra-high sensitivity mouse collimator as disclosed FIG. 25A, FIG. 25B and FIG. 25C.

O=C(O)CC[C@H](NC(=O)N[C@@H](CCCCNC(=O)CCCCCCC(=O)NCCCCNC(=S)Nc1ccc(CC2CN(CC(=O)O)CCN(CC(=O)O)CCN(CC(=O)O)CCN2CC(=O)O)cc1)C(=O)O)C(=O)O.[203Pb+2] (stereo partly drawn) [^203Pb-SR-VI-71]
PIP/flu ratio ([1]; 1 H): 98 | Tissue biodistribution, Blood ([1]; 1 H): 0.60 ± 0.05 | Tissue biodistribution, PC-3 PIP ([1]; 1 H): 41.88 ± 7.60 | Tissue biodistribution, PC-3 flu ([1]; 1 H): 0.43 ± 0.11 | Tissue biodistribution, Sm intestine ([1]; 1 H): 0.31 ± 0.05 | Tissue biodistribution, bladder ([1]; 1 H): 5.96 ± 2.24 | Tissue biodistribution, fat ([1]; 1 H): 0.77 ± 0.29 | Tissue biodistribution, heart ([1]; 1 H): 0.30 ± 0.03 | Tissue biodistribution, kidney ([1]; 1 H): 75.18 ± 9.94 | Tissue biodistribution, liver ([1]; 1 H): 1.09 ± 0.07 | Tissue biodistribution, lung ([1]; 1 H): 1.20 ± 0.19 | Tissue biodistribution, muscle ([1]; 1 H): 0.22 ± 0.14 | Tissue biodistribution, pancreas ([1]; 1 H): 0.49 ± 0.09 | Tissue biodistribution, salivary gland ([1]; 1 H): 1.78 ± 0.69 | Tissue biodistribution, spleen ([1]; 1 H): 5.07 ± 1.68 | Tissue biodistribution, stomach ([1]; 1 H): 0.30 ± 0.04 | PIP/flu ratio ([1]; 2 H): 130 | Tissue biodistribution, Blood ([1]; 2 H): 0.31 ± 0.04 | Tissue biodistribution, PC-3 PIP ([1]; 2 H): 38.14 ± 6.30 | Tissue biodistribution, PC-3 flu ([1]; 2 H): 0.29 ± 0.14 | Tissue biodistribution, Sm intestine ([1]; 2 H): 0.23 ± 0.04 | Tissue biodistribution, bladder ([1]; 2 H): 10.40 ± 3.21 | Tissue biodistribution, fat ([1]; 2 H): 0.31 ± 0.22 | Tissue biodistribution, heart ([1]; 2 H): 0.14 ± 0.06 | Tissue biodistribution, kidney ([1]; 2 H): 39.35 ± 7.28 | Tissue biodistribution, liver ([1]; 2 H): 1.01 ± 0.21 | Tissue biodistribution, lung ([1]; 2 H): 0.64 ± 0.14 | Tissue biodistribution, muscle ([1]; 2 H): 0.22 ± 0.07 | Tissue biodistribution, pancreas ([1]; 2 H): 0.29 ± 0.05 | Tissue biodistribution, salivary gland ([1]; 2 H): 0.93 ± 0.07 | Tissue biodistribution, spleen ([1]; 2 H): 1.59 ± 0.58 | Tissue biodistribution, stomach ([1]; 2 H): 0.15 ± 0.03 | PIP/flu ratio ([1]; 4 H): 178 | Tissue biodistribution, Blood ([1]; 4 H): 0.24 ± 0.02 | Tissue biodistribution, PC-3 PIP ([1]; 4 H): 34.74 ± 7.37 | Tissue biodistribution, PC-3 flu ([1]; 4 H): 0.20 ± 0.06 | Tissue biodistribution, Sm intestine ([1]; 4 H): 0.15 ± 0.04 | Tissue biodistribution, bladder ([1]; 4 H): 1.94 ± 0.49 | Tissue biodistribution, fat ([1]; 4 H): 0.31 ± 0.18 | Tissue biodistribution, heart ([1]; 4 H): 0.09 ± 0.01 | Tissue biodistribution, kidney ([1]; 4 H): 22.75 ± 6.22 | Tissue biodistribution, liver ([1]; 4 H): 0.92 ± 0.09 | Tissue biodistribution, lung ([1]; 4 H): 0.28 ± 0.04 | Tissue biodistribution, muscle ([1]; 4 H): 0.06 ± 0.02 | Tissue biodistribution, pancreas ([1]; 4 H): 0.24 ± 0.05 | Tissue biodistribution, salivary gland ([1]; 4 H): 0.29 ± 0.02 | Tissue biodistribution, spleen ([1]; 4 H): 0.72 ± 0.16 | Tissue biodistribution, stomach ([1]; 4 H): 0.13 ± 0.03 | PIP/flu ratio ([1]; 24 H): 194 | Tissue biodistribution, Blood ([1]; 24 H): 0.21 ± 0.02 | Tissue biodistribution, PC-3 PIP ([1]; 24 H): 27.92 ± 7.01 | Tissue biodistribution, PC-3 flu ([1]; 24 H): 0.14 ± 0.01 | Tissue biodistribution, Sm intestine ([1]; 24 H): 0.04 ± 0.03 | Tissue biodistribution, bladder ([1]; 24 H): 0.31 ± 0.16 | Tissue biodistribution, fat ([1]; 24 H): 0.05 ± 0.06 | Tissue biodistribution, heart ([1]; 24 H): 0.07 ± 0.01 | Tissue biodistribution, kidney ([1]; 24 H): 7.01 ± 0.80 | Tissue biodistribution, liver ([1]; 24 H): 0.64 ± 0.04 | Tissue biodistribution, lung ([1]; 24 H): 0.16 ± 0.01 | Tissue biodistribution, muscle ([1]; 24 H): 0.04 ± 0.03 | Tissue biodistribution, pancreas ([1]; 24 H): 0.09 ± 0.06 | Tissue biodistribution, salivary gland ([1]; 24 H): 0.10 ± 0.05 | Tissue biodistribution, spleen ([1]; 24 H): 0.24 ± 0.02 | Tissue biodistribution, stomach ([1]; 24 H): 0.07 ± 0.01

NC(=O)CN1CCN(CC(N)=O)CCN(CC(N)=O)C(Cc2ccc(NC(=S)NCCCCNC(=O)CCCCCCC(=O)NCCCC[C@H](NC(=O)N[C@@H](CCC(=O)O)C(=O)O)C(=O)O)cc2)CN(CC(N)=O)CC1.[203Pb+2] (stereo partly drawn) [^203Pb-SR-IX-11]
PIP/flu ratio ([1]; 2 H): 114 | Tissue biodistribution, Blood ([1]; 2 H): 0.07 ± 0.01 | Tissue biodistribution, PC-3 PIP ([1]; 2 H): 21.64 ± 1.23 | Tissue biodistribution, PC-3 flu ([1]; 2 H): 0.19 ± 0.04 | Tissue biodistribution, Sm intestine ([1]; 2 H): 0.25 ± 0.15 | Tissue biodistribution, bladder ([1]; 2 H): 8.64 ± 0.77 | Tissue biodistribution, fat ([1]; 2 H): 1.54 ± 1.64 | Tissue biodistribution, heart ([1]; 2 H): 0.07 ± 0.01 | Tissue biodistribution, kidney ([1]; 2 H): 3.61 ± 0.81 | Tissue biodistribution, liver ([1]; 2 H): 0.21 ± 0.01 | Tissue biodistribution, lung ([1]; 2 H): 0.24 ± 0.03 | Tissue biodistribution, muscle ([1]; 2 H): 0.78 ± 0.83 | Tissue biodistribution, pancreas ([1]; 2 H): 0.06 ± 0.00 | Tissue biodistribution, salivary gland ([1]; 2 H): 0.35 ± 0.10 | Tissue biodistribution, spleen ([1]; 2 H): 0.25 ± 0.1 | Tissue biodistribution, stomach ([1]; 2 H): 0.12 ± 0.00

O=C([O-])CN1CCN(CC(=O)[O-])CCN(CC(=O)NC(Cc2ccccc2)C(=O)NC(Cc2ccccc2)C(=O)NC(Cc2ccccc2)C(=O)N[C@@H](CCCCNC(=O)CCCCCCC(=O)NCCCC[C@H](NC(=O)N[C@@H](CCC(=O)O)C(=O)O)C(=O)O)C(=O)O)CCN(CC(=O)[O-])CC1.[Y+3] (stereo partly drawn) [^89Y-5] ({DOTA}-[ξF][ξF][ξF]K(X1)-OH)
Ki [2]: 0.1 nM

O=C([O-])CN1CCN(CC(=O)[O-])CCN(CC(=O)[O-])C(Cc2ccc(NC(=S)NCCCCNC(=O)CCCCCCC(=O)NCCCC[C@H](NC(=O)N[C@@H](CCC(=O)O)C(=O)O)C(=O)O)cc2)CN(CC(=O)[O-])CC1.[177Lu+3] (stereo partly drawn) [^177Lu-SR-VI-71]
cell uptake ([3]; 0.01-10 μCi, PSMA+ PIP vs PSMA− flu): high uptake in PSMA+ PIP and negligible uptake in PSMA− flu tumor | blockade of uptake in PSMA+ cells ([3]; co-incubation of 10 μM of ZJ43): ~90% | fraction of total cell associated radioactivity internalized ([3]; internalization study): ~44% | PIP:flu ratio ([4]; 2 h): ~180 | kidney uptake ([4]; 2 h): 89.3±28.9% | uptake in PSMA+ tumor ([4]; 2 h): 59.1±12.8 % ID/g | Tissue biodistribution, Blood ([4]; 3 h): 0.14 ± 0.04 | Tissue biodistribution, Flu tumor ([4]; 3 h): 0.14 ± 0.03 | Tissue biodistribution, PIP tumor ([4]; 3 h): 41.46 ± 7.88 | Tissue biodistribution, SI ([4]; 3 h): 0.23 ± 0.12 | Tissue biodistribution, heart ([4]; 3 h): 0.09 ± 0.04 | Tissue biodistribution, kidney ([4]; 3 h): 53.66 ± 9.64 | Tissue biodistribution, liver ([4]; 3 h): 0.31 ± 0.25 | Tissue biodistribution, lung ([4]; 3 h): 0.62 ± 0.31 | Tissue biodistribution, muscle ([4]; 3 h): 0.24 ± 0.14 | Tissue biodistribution, salivary gland ([4]; 3 h): 0.42 ± 0.09 | Tissue biodistribution, spleen ([4]; 3 h): 1.83 ± 0.38 | Tissue biodistribution, Blood ([4]; 24 h): 0.03 ± 0.03 | Tissue biodistribution, Flu tumor ([4]; 24 h): 0.09 ± 0.01 | Tissue biodistribution, PIP tumor ([4]; 24 h): 27.52 ± 1.19 | Tissue biodistribution, SI ([4]; 24 h): 0.10 ± 0.05 | Tissue biodistribution, heart ([4]; 24 h): 0.04 ± 0.00 | Tissue biodistribution, kidney ([4]; 24 h): 4.35 ± 0.41 | Tissue biodistribution, liver ([4]; 24 h): 0.38 ± 0.35 | Tissue biodistribution, lung ([4]; 24 h): 0.25 ± 0.026 | Tissue biodistribution, muscle ([4]; 24 h): 0.04 ± 0.00 | Tissue biodistribution, salivary gland ([4]; 24 h): 0.07 ± 0.08 | Tissue biodistribution, spleen ([4]; 24 h): 0.74 ± 0.64 | kidney uptake ([4]; 24 h): 6.29±3.4 % ID/g | uptake in PSMA+ tumor ([4]; 24 h): 40.6±5.8 ID/g | Tissue biodistribution, Blood ([4]; 48 h): 0.03 ± 0.03 | Tissue biodistribution, Flu tumor ([4]; 48 h): 0.05 ± 0.00 | Tissue biodistribution, PIP tumor ([4]; 48 h): 16.99 ± 2.65 | Tissue biodistribution, SI ([4]; 48 h): 0.04 ± 0.01 | Tissue biodistribution, heart ([4]; 48 h): 0.02 ± 0.00 | Tissue biodistribution, kidney ([4]; 48 h): 2.35 ± 0.62 | Tissue biodistribution, liver ([4]; 48 h): 0.11 ± 0.07 | Tissue biodistribution, lung ([4]; 48 h): 0.06 ± 0.04 | Tissue biodistribution, muscle ([4]; 48 h): 0.02 ± 0.00 | Tissue biodistribution, salivary gland ([4]; 48 h): 0.10 ± 0.04 | Tissue biodistribution, spleen ([4]; 48 h): 0.17 ± 0.05 | Tissue biodistribution, Blood ([4]; 72 h): 0.01 ± 0.01 | Tissue biodistribution, Flu tumor ([4]; 72 h): 0.04 ± 0.00 | Tissue biodistribution, PIP tumor ([4]; 72 h): 15.63 ± 4.62 | Tissue biodistribution, SI ([4]; 72 h): 0.05 ± 0.03 | Tissue biodistribution, heart ([4]; 72 h): 0.03 ± 0.01 | Tissue biodistribution, kidney ([4]; 72 h): 2.59 ± 1.10 | Tissue biodistribution, liver ([4]; 72 h): 0.05 ± 0.03 | Tissue biodistribution, lung ([4]; 72 h): 0.03 ± 0.02 | Tissue biodistribution, muscle ([4]; 72 h): 0.01 ± 0.01 | Tissue biodistribution, salivary gland ([4]; 72 h): 0.09 ± 0.04 | Tissue biodistribution, spleen ([4]; 72 h): 0.09 ± 0.08 | Tissue biodistribution, Blood ([4]; 96 h): 0.00 ± 0.00 | Tissue biodistribution, Flu tumor ([4]; 96 h): 0.03 ± 0.0 | Tissue biodistribution, PIP tumor ([4]; 96 h): 9.04 ± 1.72 | Tissue biodistribution, SI ([4]; 96 h): 0.01 ± 0.00 | Tissue biodistribution, heart ([4]; 96 h): 0.01 ± 0.00 | Tissue biodistribution, kidney ([4]; 96 h): 1.44 ± 0.11 | Tissue biodistribution, liver ([4]; 96 h): 0.04 ± 0.0 | Tissue biodistribution, lung ([4]; 96 h): 0.05 ± 0.01 | Tissue biodistribution, muscle ([4]; 96 h): 0.01 ± 0.0 | Tissue biodistribution, salivary gland ([4]; 96 h): 0.06 ± 0.02 | Tissue biodistribution, spleen ([4]; 96 h): 0.06 ± 0.03
